Data as given in patent publication US7745619B2, “Vinca derivatives” (priority 2003, dated 2010).
Read-outs that look alike come from different tables or passages of the source.

Columns and labels:
HeLa S-3 cells = assay: HeLa GI50 determination (SRB growth inhibition); assay type: cell-based, human; details: Homo sapiens, HeLa S3, 48 h
Procedure: Growth inhibition (GI50) values were measured on the human cervical carcinoma cell line, HeLa S-3, which were selected for growth on plastic. The HeLa cell assay was based on the description of Skehan et al., J. Natl. Cancer Inst., 82:1107-12 (1990), which is hereby incorporated by reference in its entirety. HeLa cells were plated at 2×10^4 cells/well in 96 well plates. One day later, a control plate was fixed by the addition of TCA to 5%. After five rinses with tap water, the plate was air-dried and stored at 4° C. Test compounds were added to the remaining plates at 10-fold dilutions. Two days later, all plates were fixed as described above. Cells were then stained by the addition of 100 μL per well of 0.4% sulforhodamine B (SRB) in 1% acetic acid for 30 min at 4° C. Wells were then quickly rinsed 5× with 1% acetic acid and allowed to air dry. The SRB was then solubilized by the addition of 100 μL per well of unbuffered 10 mM Tris base. Dye was quantified by measuring absorbance at 490 nm on a Molecular Devices microplate reader. Growth inhibition was calculated according to the following equation: GI=100×(T−T0)/(C−T0), where the optical density (OD) of the test well after 2 days of treatment was T, the OD of the wells in the control plate on day 0 was T0 and C was the OD of untreated wells. Plots of percent growth inhibition versus inhibitor concentration were used to determine the GI50.

MCF-7 cells = assay: MCF-7 GI50 determination (crystal violet growth inhibition); assay type: cell-based, human; details: Homo sapiens, MCF7, 96 h
Procedure: Growth inhibition (GI50) values were measured on the human breast carcinoma line, MCF-7. MCF-7 cells were plated at 2×10^4 cells/well in 96 well plates and grown for 24 hours in drug free media. On day 2, test compounds were added to the plates at 10-fold dilutions. Four days later, cells were fixed by the addition of glutaraldehyde to 0.75%. After 30 min, the fixed cells were extensively rinsed with distilled water and dried at room temperature for one hour. The cells were then stained with a 0.2% crystal violet solution for one hour at room temperature. Unbound stain was removed by ten rinses with tap water and plates were allowed to air dry for 30 min. The crystal violet was then solubilized by the addition of 10% acetic acid for 15 min and quantified by measuring absorbance at 570 nm on a Molecular Devices microplate reader. Growth inhibition was calculated according to the following equation: GI=[…], where the optical density (OD) of the test well after 4 days of treatment was T, the OD of the wells in the control plate on day 0 was T0. Plots of percent growth inhibition versus inhibitor concentration were used to determine the GI50.

[1] = read-out: MCF-7 Cells GI50 (nM)
[2] = HeLa S-3 cells, 2 days of treatment, sulforhodamine B, read-out: HeLa Cells GI50
[3] = MCF-7 cells, 4 days of treatment, crystal violet, read-out: MCF-7 Cells GI50

| Structure (SMILES) | GI50 (HeLa S-3 cells; read-out: HeLa Cells GI50 (nM)) [nM] | GI50 (MCF-7 cells; [1]) [nM] | GI50 (HeLa S-3 cells; [2]) [nM] | GI50 (MCF-7 cells; [3]) [nM] |
| --- | --- | --- | --- | --- |
| CC[C@]1(O)C[C@H]2CN(CCc3c([nH]c4ccc(SCCNC(C)=O)cc34)[C@@](C(=O)OC)(c3cc4c(cc3OC)N(C)[C@H]3[C@@](O)(C(=O)OC)[C@H](OC(C)=O)[C@]5(CC)C=CCN6CC[C@]43[C@@H]65)C2)C1 [Example 52, 12′-(2-(acetylamino)ethylsulfanyl) vinblastine] | 200 | 300 |  |  |
| CCOC(=O)/C=C/c1ccc2[nH]c3c(c2c1)CCN1C[C@H](C[C@@](O)(CC)C1)C[C@]3(C(=O)OC)c1cc2c(cc1OC)N(C)[C@H]1[C@@](O)(C(=O)OC)[C@H](OC(C)=O)[C@]3(CC)C=CCN4CC[C@]21[C@@H]43 [Example 26, 12′-(2-ethoxycarbonylvinyl)vinblastine] | 165 | 70 |  |  |
| CC[C@]1(O)C[C@H]2CN(CCc3c([nH]c4ccc(SSC)cc34)[C@@](C(=O)OC)(c3cc4c(cc3OC)N(C)[C@H]3[C@@](O)(C(=O)OC)[C@H](OC(C)=O)[C@]5(CC)C=CCN6CC[C@]43[C@@H]65)C2)C1 [Example 57, 12′-(methyldisulfanyl) vinblastine] |  |  | 300 | 300 |
| CC[C@]1(O)C[C@H]2CN(CCc3c([nH]c4ccc(SCC(=O)OC(C)(C)C)cc34)[C@@](C(=O)OC)(c3cc4c(cc3OC)N(C)[C@H]3[C@@](O)(C(=O)OC)[C@H](OC(C)=O)[C@]5(CC)C=CCN6CC[C@]43[C@@H]65)C2)C1 [Example 44, 12′-(tert-butoxycarbonylmethylsulfanyl) vinblastine] | 70 | 100 |  |  |
| CC[C@]1(O)C[C@H]2CN(CCc3c([nH]c4ccc(-c5ccsc5)cc34)[C@@](C(=O)OC)(c3cc4c(cc3OC)N(C)[C@H]3[C@@](O)(C(=O)OC)[C@H](OC(C)=O)[C@]5(CC)C=CCN6CC[C@]43[C@@H]65)C2)C1 [Example 14, 12′-(3-thienyl) vinblastine] | 300 | 300 |  |  |
| CC[C@]1(O)C[C@H]2CN(CCc3c([nH]c4ccc(CCC(C)C)cc34)[C@@](C(=O)OC)(c3cc4c(cc3OC)N(C=O)[C@H]3[C@@](O)(C(=O)OC)[C@H](OC(C)=O)[C@]5(CC)C=CCN6CC[C@]43[C@@H]65)C2)C1 [Example 73, 12′-(3-methylbutyl) vincristine] | 200 | 300 |  |  |
| CC[C@]1(O)C[C@H]2CN(CCc3c([nH]c4ccc(SCc5ccc(OC)cc5)cc34)[C@@](C(=O)OC)(c3cc4c(cc3OC)N(C)[C@H]3[C@@](O)(C(=O)OC)[C@H](OC(C)=O)[C@]5(CC)C=CCN6CC[C@]43[C@@H]65)C2)C1 [Example 36, 12′-(4-methoxybenzylsulfanyl)vinblastine] | 30 | 50 |  |  |
| CC[C@]1(O)C[C@H]2CN(CCc3c([nH]c4ccc(C#CC(C)C)cc34)[C@@](C(=O)OC)(c3cc4c(cc3OC)N(C)[C@H]3[C@@](O)(C(=O)OC)[C@H](OC(C)=O)[C@]5(CC)C=CCN6CC[C@]43[C@@H]65)C2)C1 [Example 20, 12′-(3-methylbutynyl) vinblastine] | 500 | > 1000 |  |  |
| CC[C@]1(O)C[C@H]2CN(CCc3c([nH]c4ccc(-c5ccccc5)cc34)[C@@](C(=O)OC)(c3cc4c(cc3OC)N(C)[C@H]3[C@@](O)(C(=O)OC)[C@H](OC(C)=O)[C@]5(CC)C=CCN6CC[C@]43[C@@H]65)C2)C1 [Example 6, 12′-phenylvinblastine] | 400 | 300 |  |  |
| CC[C@]1(O)C[C@H]2CN(CCc3c([nH]c4ccc(N5CCOCC5)cc34)[C@@](C(=O)OC)(c3cc4c(cc3OC)N(C)[C@H]3[C@@](O)(C(=O)OC)[C@H](OC(C)=O)[C@]5(CC)C=CCN6CC[C@]43[C@@H]65)C2)C1 [Example 86, 12′-(4-morpholino) vinblastine] | 30 | 50 |  |  |
| CC[C@]1(O)C[C@H]2CN(CCc3c([nH]c4ccc(-c5ccc(OC)cc5)cc34)[C@@](C(=O)OC)(c3cc4c(cc3OC)N(C=O)[C@H]3[C@@](O)(C(=O)OC)[C@H](OC(C)=O)[C@]5(CC)C=CCN6CC[C@]43[C@@H]65)C2)C1 [Example 7, 12′-(4-methoxyphenyl) vincristine] | 400 | 100 |  |  |
| CC[C@]1(O)C[C@H]2CN(CCc3c([nH]c4ccc(C=O)cc34)[C@@](C(=O)OC)(c3cc4c(cc3OC)N(C=O)[C@H]3[C@@](O)(C(=O)OC)[C@H](OC(C)=O)[C@]5(CC)C=CCN6CC[C@]43[C@@H]65)C2)C1 [Example 62, 12′-formylvincristine] |  |  | 10 | 30 |
| CC[C@]1(O)C[C@H]2CN(CCc3c([nH]c4ccc(SCC(=O)NC)cc34)[C@@](C(=O)OC)(c3cc4c(cc3OC)N(C)[C@H]3[C@@](O)(C(=O)OC)[C@H](OC(C)=O)[C@]5(CC)C=CCN6CC[C@]43[C@@H]65)C2)C1 [Example 46, 12′-(methylaminocarbonylmethylsulfanyl)vinblastine] | 200 | 500 |  |  |
| CC[C@]1(O)C[C@H]2CN(CCc3c([nH]c4ccc(-c5ccccc5)cc34)[C@@](C(=O)OC)(c3cc4c(cc3OC)N(C=O)[C@H]3[C@@](O)(C(=O)OC)[C@H](OC(C)=O)[C@]5(CC)C=CCN6CC[C@]43[C@@H]65)C2)C1 [Example 5, 12′-phenylvincristine] | 50 | 30 |  |  |
| CC[C@]1(O)C[C@H]2CN(CCc3c([nH]c4ccc(SCCN(C)C)cc34)[C@@](C(=O)OC)(c3cc4c(cc3OC)N(C)[C@H]3[C@@](O)(C(=O)OC)[C@H](OC(C)=O)[C@]5(CC)C=CCN6CC[C@]43[C@@H]65)C2)C1 [Example 48, 12′-(2-(N,N-dimethylamino)ethylsulfanyl)vinblastine] | 30 | 40 |  |  |
| CCc1cc2[nH]c3c(c2cc1CC)CCN1C[C@H](C[C@@](O)(CC)C1)C[C@]3(C(=O)OC)c1cc2c(cc1OC)N(C=O)[C@H]1[C@@](O)(C(=O)OC)[C@H](OC(C)=O)[C@]3(CC)C=CCN4CC[C@]21[C@@H]43 [Example 95, 12′,13′-diethylvincristine] | 20 | 30 |  |  |
| CC[C@]1(O)C[C@H]2CN(CCc3c([nH]c4ccc(N)cc34)[C@@](C(=O)OC)(c3cc4c(cc3OC)N(C)[C@H]3[C@@](O)(C(=O)OC)[C@H](OC(C)=O)[C@]5(CC)C=CCN6CC[C@]43[C@@H]65)C2)C1 [Example 80, 12′-aminovinblastine] |  |  | 200 | 200 |
| CC[C@]1(O)C[C@H]2CN(CCc3c([nH]c4ccc(C(=O)NC)cc34)[C@@](C(=O)OC)(c3cc4c(cc3OC)N(C)[C@H]3[C@@](O)(C(=O)OC)[C@H](OC(C)=O)[C@]5(CC)C=CCN6CC[C@]43[C@@H]65)C2)C1 [Example 69, 12′-N-(methylaminocarbonyl)vinblastine] | 600 | > 1000 |  |  |
| CC[C@]1(O)C[C@H]2CN(CCc3c([nH]c4ccc(SSC(C)(C)C)cc34)[C@@](C(=O)OC)(c3cc4c(cc3OC)N(C)[C@H]3[C@@](O)(C(=O)OC)[C@H](OC(C)=O)[C@]5(CC)C=CCN6CC[C@]43[C@@H]65)C2)C1 [Example 59, 12′-(tert-butyldisulfanyl) vinblastine] | 300 | 300 |  |  |
| CCSc1ccc2[nH]c3c(c2c1)CCN1C[C@H](C[C@@](O)(CC)C1)C[C@]3(C(=O)OC)c1cc2c(cc1OC)N(C)[C@H]1[C@@](O)(C(=O)OC)[C@H](OC(C)=O)[C@]3(CC)C=CCN4CC[C@]21[C@@H]43 [Example 41, 12′-(ethylsulfanyl) vinblastine] |  |  | 2 | 3 |
| CC[C@]1(O)C[C@H]2CN(CCc3c([nH]c4ccc(C#CC(C)C)cc34)[C@@](C(=O)OC)(c3cc4c(cc3OC)N(C=O)[C@H]3[C@@](O)(C(=O)OC)[C@H](OC(C)=O)[C@]5(CC)C=CCN6CC[C@]43[C@@H]65)C2)C1 [Example 21, 12′-(3-methylbutynyl) vincristine] | 300 | 300 |  |  |
| CC[C@]1(O)C[C@H]2CN(CCc3c([nH]c4ccc(-c5cccc(OC)c5)cc34)[C@@](C(=O)OC)(c3cc4c(cc3OC)N(C)[C@H]3[C@@](O)(C(=O)OC)[C@H](OC(C)=O)[C@]5(CC)C=CCN6CC[C@]43[C@@H]65)C2)C1 [Example 9, 12′-(3-methoxyphenyl) vinblastine] | 300 | 500 |  |  |
